Results as given in ChEMBL document CHEMBL3272053, “(exo, exo)-2-Aryltropane-3-carboxylic esters, hypoglycemic agents with accompanying analgesic activity” (J Med Chem, 1978).
Active and inactive are the calls of the source. The calls are words filed in the database; no cut-off is given here.

Columns and labels:
[1] = test system: Mus musculus; experiment: Analgesic activity in sc dosed Swiss-Webster mouse assessed as reduction of acetylcholine-induced writhing; assay type: functional; settings: Mus musculus, Swiss-Webster, sc
[2] = test system: Rattus norvegicus; experiment: Hypoglycemic activity in Sprague-Dawley rat assessed as reduction of blood glucose level at 87 mg/kg, po by glucagon-impaired glucose disposal test relative to control; assay type: functional; parameters: scale not given: the % may be the effect or the level left
[3] = test system: Rattus norvegicus; experiment: Toxicity in Sprague-Dawley rat assessed as convulsion at 240 mg/kg, sc; assay type: organism-based; parameters: dose 240 mg/kg, route subcutaneous; settings: in vivo
[4] = test system: Rattus norvegicus; experiment: Narcotic analgesic activity in fed Sprague-Dawley rat at 240 mg/kg, sc measured at 30 mins by D'Amour-Smith tail-flick test; assay type: functional; settings: route subcutaneous
[5] = test system: Rattus norvegicus; experiment: Toxicity in Sprague-Dawley rat assessed as tremor at 240 mg/kg, sc; assay type: organism-based; parameters: dose 240 mg/kg, route subcutaneous; settings: in vivo
[6] = test system: Rattus norvegicus; experiment: Analgesic activity in rat assessed as protection against intraarterial bradykinin-induced pain response at 50 mg/kg, sc relative to control; assay type: functional; settings: route subcutaneous
[7] = test system: Rattus norvegicus; experiment: Hypoglycemic activity in Sprague-Dawley rat assessed as reduction of blood glucose level at 100 mg/kg, po by glucagon-impaired glucose disposal test relative to control; assay type: functional; parameters: scale not given: the % may be the effect or the level left
[8] = test system: Rattus norvegicus; experiment: Toxicity in Sprague-Dawley rat assessed as tremor at 480 mg/kg, po; assay type: organism-based; parameters: dose 480 mg/kg, route oral; settings: in vivo
[9] = test system: Rattus norvegicus; experiment: Narcotic analgesic activity in fasted Sprague-Dawley rat at 480 mg/kg, po measured at 60 mins by D'Amour-Smith tail-flick test relative to control; assay type: functional
[10] = test system: Rattus norvegicus; experiment: Toxicity in Sprague-Dawley rat assessed as hyperexcitability at 480 mg/kg, po; assay type: organism-based; parameters: dose 480 mg/kg, route oral; settings: in vivo
[11] = test system: Mus musculus; experiment: Analgesic activity in po dosed Swiss-Webster mouse assessed as reduction of acetylcholine-induced writhing; assay type: functional
[12] = test system: Rattus norvegicus; experiment: Narcotic analgesic activity in fasted Sprague-Dawley rat at 240 mg/kg, po measured at 15 mins by D'Amour-Smith tail-flick test relative to control; assay type: functional
[13] = test system: Rattus norvegicus; experiment: Hypoglycemic activity in Sprague-Dawley rat assessed as reduction of blood glucose level at 88 mg/kg, po by glucagon-impaired glucose disposal test relative to control; assay type: functional
[14] = test system: Mus musculus; experiment: Analgesic activity in Swiss-Webster mouse assessed as reduction of acetylcholine-induced writhing at 50 mg/kg, po relative to control; assay type: functional; parameters: scale not given: the % may be the effect or the level left
[15] = test system: Rattus norvegicus; experiment: Hypoglycemic activity in glucose loaded Sprague-Dawley rat assessed as reduction of blood glucose level at 264 mg/kg, po relative to control; assay type: functional; parameters: scale not given: the % may be the effect or the level left
[16] = test system: Rattus norvegicus; experiment: Hypoglycemic activity in Sprague-Dawley rat assessed as reduction of blood glucose level at 100 mg/kg, po; assay type: functional, organism-based; parameters: dose 100 mg/kg
[17] = organism: Rattus norvegicus; experiment: Narcotic analgesic activity in Sprague-Dawley rat at 15 mins by D'Amour-Smith tail-flick test in presence of microsomal enzyme inhibitor SKF 525-A; assay type: functional, organism-based
[18] = test system: Rattus norvegicus; experiment: Narcotic analgesic activity in fasted Sprague-Dawley rat at 120 mg/kg,sc measured at 30 mins by D'Amour-Smith tail-flick test in presence of opioid antagonist nalorphine; assay type: functional, organism-based; parameters: dose 120 mg/kg
[19] = test system: Rattus norvegicus; experiment: Toxicity in Sprague-Dawley rat assessed as rigidity at 240 mg/kg, sc; assay type: organism-based; parameters: dose 240 mg/kg, route subcutaneous; settings: in vivo
[20] = test system: Rattus norvegicus; experiment: Hypoglycemic activity in Sprague-Dawley rat assessed as reduction of blood glucose level at 88 mg/kg, po by glucagon-impaired glucose disposal test in presence of opioid antagonist nalorphine; assay type: functional, organism-based; parameters: dose 88 mg/kg
[21] = test system: Rattus norvegicus; experiment: Narcotic analgesic activity in fasted Sprague-Dawley rat at 120 mg/kg, po measured at 60 mins by D'Amour-Smith tail-flick test relative to control; assay type: functional
[22] = test system: Rattus norvegicus; experiment: Hypoglycemic activity in Sprague-Dawley rat assessed as reduction of blood glucose level at 88 mg/kg, po by glucagon-impaired glucose disposal test in presence of microsomal enzyme inhibitor SKF 525-A; assay type: functional, organism-based; parameters: dose 88 mg/kg
[23] = test system: Rattus norvegicus; experiment: Hypoglycemic activity in Sprague-Dawley rat assessed as reduction of blood glucose level at 78 mg/kg, po by glucagon-impaired glucose disposal test relative to control; assay type: functional; parameters: scale not given: the % may be the effect or the level left
[24] = test system: Rattus norvegicus; experiment: Narcotic analgesic activity in fasted Sprague-Dawley rat at 240 mg/kg, po measured at 60 mins by D'Amour-Smith tail-flick test relative to control; assay type: functional
[25] = test system: Mus musculus; experiment: Analgesic activity in Swiss-Webster mouse assessed as reduction of acetylcholine-induced writhing at 75 mg/kg, sc relative to control; assay type: functional; parameters: scale not given: the % may be the effect or the level left; settings: route subcutaneous
[26] = organism: Rattus norvegicus; experiment: Narcotic analgesic activity in Sprague-Dawley rat measured at 15 mins by D'Amour-Smith tail-flick test relative to control; assay type: functional
[27] = test system: Rattus norvegicus; experiment: Hypoglycemic activity in glucose loaded Sprague-Dawley rat assessed as reduction of blood glucose level at 100 mg/kg, po relative to control; assay type: functional; parameters: scale not given: the % may be the effect or the level left
[28] = test system: Rattus norvegicus; experiment: Toxicity in Sprague-Dawley rat assessed as convulsion at 240 mg/kg, po; assay type: organism-based; parameters: dose 240 mg/kg, route oral; settings: in vivo
[29] = test system: Rattus norvegicus; experiment: Hypoglycemic activity in fasted Sprague-Dawley rat assessed as reduction of blood glucose level at 89 mg/kg, po relative to control; assay type: functional; parameters: scale not given: the % may be the effect or the level left
[30] = test system: Mus musculus; experiment: Analgesic activity in Swiss-Webster mouse assessed as reduction of acetylcholine-induced writhing at 25 mg/kg, sc relative to control; assay type: functional; parameters: scale not given: the % may be the effect or the level left; settings: route subcutaneous
[31] = test system: Rattus norvegicus; experiment: Toxicity in Sprague-Dawley rat assessed as hyperexcitability at 240 mg/kg, po; assay type: organism-based; parameters: dose 240 mg/kg, route oral; settings: in vivo
[32] = test system: Rattus norvegicus; experiment: Hypoglycemic activity in Sprague-Dawley rat assessed as reduction of blood glucose level at 300 mg/kg, po by glucagon-impaired glucose disposal test relative to control; assay type: functional; parameters: scale not given: the % may be the effect or the level left

CC(=O)[C@H]1C[C@H]2CC[C@H]([C@H]1c1cccs1)N2C.Cl
ED50 ([1]; read-out: ED50): 12 mg/kg | Activity [2]: 26% | Activity [3]: Toxic | Activity [4]: 55% | Activity [5]: Toxic | Activity [6]: 80%

COC(=O)[C@H]1C[C@H]2CC[C@H]([C@H]1c1ccccc1)N2Cc1ccccc1
Activity [7]: 42% | Activity [8]: Toxic | Activity [9]: 60% | Activity [10]: Toxic | ED50 [11]: 21 mg/kg

COC(=O)CN1[C@@H]2CC[C@@H]1[C@@H](c1cccs1)[C@@H](C(=O)OC)C2.Cl
Activity [12]: 100% | Activity [13]: inactive | Activity [14]: 33% | Activity [15]: 70%

COC(=O)[C@@H]1C[C@@H]2CC[C@@H]([C@@H]1c1cccs1)N2C.Cl
Activity [16]: inactive | Activity [17]: inactive | Activity [4]: 62% | Activity [13]: <20% | Activity [18]: inactive | Activity [5]: Toxic | Activity [19]: Toxic | Activity [20]: Active | Activity [21]: 26% | Activity [22]: inactive

CN1[C@@H]2CC[C@@H]1[C@@H](c1ccccc1)[C@@H](C(=O)O)C2
Activity [12]: <20% | Activity [23]: <20% | Activity [24]: <20% | Activity [25]: 7%

CCC(CC)CN1[C@@H]2CC[C@@H]1[C@@H](c1cccs1)[C@@H](C(=O)OC)C2
Activity [26]: 24% | Activity [12]: 72% | Activity [25]: 7% | Activity [27]: 69%

COC(=O)[C@H]1C[C@H]2CC[C@H]([C@H]1c1cccs1)N2C(C)C.Cl
Activity [28]: Toxic | Activity [12]: 87% | Activity [29]: 40% | Activity [30]: 13%

COC(=O)[C@H]1C[C@H]2CC[C@H]([C@H]1c1ccsc1)N2C
ED40 [1]: 12 mg/kg | Activity [31]: Toxic | Activity [24]: 40% | Activity [32]: 42%
